Experimental data taken from US20050165011A1, “Benzoxazine and benzoxazinone substituted triazoles” (priority 2002, published 2005).

System: TGF-β signaling (PAl-1 promoter luciferase reporter, HepG2 cells)
Test: Cellular transcriptional assay (PAI-1 promoter luciferase reporter in HepG2 cells exposed to TGF-β)
Assay type: cell-based
Conditions: 500 μM CPO in the presence of TGF-β; toxicity control
Protocol: Assay 1 (Cellular Transcriptional Assay)
The assay was performed in HepG2 cells stably transfected with the PAl-1 promoter (known to be a strong TGF-β responsive promoter) linked to a luciferase (firefly) reporter gene. The compounds were selected on their ability to inhibit luciferase activity in cells exposed to TGF-β. In addition, cells were transfected with a second luciferase (Renilla) gene which was not driven by a TGF-β responsive promoter and was used as a toxicity control.
96 well microplates were seeded, using a multidrop apparatus, with the stably transfected cell line at a concentration of 35000 cells per well in 200 μl of serum-containing medium. These plates were placed in a cell incubator.
18 to 24 hours later (Day 2), cell-incubation procedure was launched. […] Each well contained only one candidate compound and its effect on the PAl-1 promoter was monitored.
Columns 11 and 12 were employed as controls. […] Column 11 was used to determine the ‘reference TGF-β induced firefly luciferase value’ against which values measured in the test wells (to quantify inhibitory activity) were compared. […]
12 to 18 hours later (day 3), the luciferase quantification procedure was launched. […] Following agitation (15 to 30 mins), luciferase activities of the plates were read in a dual-injector luminometer (BMG lumistar). […]

Row | SMILES | firefly and renilla luciferase activities relative to TGF-β only wells
1 | O=C1C=CCC1 [CPO, Cyclopentenone] | around 50%

System: not given
Test: not given
Conditions: not given

Row | SMILES | melting point [°C]
2 | Cc1cccc(-c2[nH]nnc2-c2ccc3c(c2)NC(=O)CO3)n1 | 224
3 | CCN1C(=O)COc2ccc(-c3nn[nH]c3-c3cccc(C)n3)cc21 | 187

Continued, values first:

Row | melting point [°C] | SMILES
4 | 150 | Cc1cccc(-c2[nH]nnc2-c2ccc3c(c2)N(CCN2CCOCC2)C(=O)CO3)n1
5 | 256 | O=C1COc2ccc(-c3nn[nH]c3-c3ccccn3)cc2N1
6 | 220 | O=C1COc2ccc(-c3nn[nH]c3-c3cccc(Cl)c3)cc2N1
